We go through four compounds from patent US20050107338A1, “Nutritional supplement enhancing mitochondrial function” (priority 2003, published 2005).

A short description of assay [1]: Age-related hearing loss in subjects treated separately with the compounds. It counts as in vivo. Particulars: subjects treated separately with each compound.
Assay [2] deals with COX and SDH. Nature of the assay: COX and SDH levels in mitochondria of dosed rats. It counts as in vivo. As to conditions: daily dosing per Table 2, after one month, COX and SDH averaged, vs control group 7. From the text:
A group of 154 rats are evenly divided between a control group and six study groups, resulting in 22 animals per group.
The change from baseline relative to the last study month in the levels of COX and SDH is compared among the seven study groups using one-way analysis of variance (ANOVA). The Dunnett t-test procedure is used to compare the control group to each of the six treatment groups. As a secondary analysis to evaluate for trends across time, repeated measures of ANOVA are to be used to compare the groups regarding the change in the COX and SDH levels over the three-month time intervals. […]
The assay for SDH measures the reduction of 2,6-dichlorophenolindophenol (DCPIP) when coupled to […] reduction of decylubiquinone (DB), monitoring the absorbance at 600 minus […] (extinction coefficient 19.1 mM^−1cm^−1) (Singer T P, 1976). The reduction of DCPIP is measured at 600 minus 520 nm in a 1 ml cuvette at 30° C. […] Antimycin A (2 μg/ml), rotenone (2 μg/ml), KCN (2 mM), and 50 μM DCPIP are added to the sample and the blank rate is recorded for 1 minute. The reaction is initiated by the addition of 50 uM DB and change in absorbance is monitored for 3 minutes.
The activity of cytochrome-c oxidase (COX) is measured by following the oxidation of reduced cytochrome c at 550 minus 540 nm (extinction coefficient 19.0 mM^−1 cm^−1) (Errede B, et al. 1996). […]

The test system of assay [3] is mitochondrial transcripts. Particulars: pretreatment of senescent rats; time and dose-dependent; cited from earlier work.
The target in assay [4] is T1, complex III (Rattus norvegicus, UniProt P00159).
T1 construct: decrease complex III activity in rat brain; host or cells: rat brain (mitochondria)
As to conditions: by competition with coenzyme Q; cited from earlier work.

`O=C(O)CCCCC1CCSS1` (stereo not shown) [Study group 1, lipoic acid]: in assay [1], the age-related hearing loss entry is “improvement”. In assay [2], the “increase in COX and SDH relative to the control group” value was 10%.

Turning to `CC(=O)N[C@@H](CS)C(=O)O` [Study group 2, N-acetyl cysteine, reference compound], the “increase in COX and SDH relative to the control group” value in assay [2] came out at 15%. For the compound `CC(=O)O[C@H](CC(=O)[O-])C[N+](C)(C)C` [acetyl-L-carnitine], the age-related hearing loss result in assay [1] is on record as “improvement”. The “levels of mitochondrial transcripts” value in assay [3] is on record as “bring back the levels of mitochondrial transcripts to adult levels”. On to `Oc1ccc(C=Cc2cc(O)cc(O)c2)cc1` [Study group 3, resveratrol], for which the “complex III activity in rat brain” value in assay [4] was “decrease”. Also, the age-related hearing loss result in assay [1] was “improvement”.
